Laboratory results taken from ChEMBL document CHEMBL4507262, “Data for DCP probe A-1596586” (2021).
The source made the active and inactive calls. No cut-off for these calls is given here.

Key:
[1] = molecular target: Cystic fibrosis transmembrane conductance regulator (Homo sapiens, UniProt P13569); test: HBE-TECC (Human Bronchial Epithelial- Trans-Epithelial Current Clamp) assay
[2] = molecular target: Angiotensin-converting enzyme (Homo sapiens) (UniProt P12821); test: ACE (h) Eurofins-Cerep enzyme and uptake assay; details: Compound concentration 10.0 uM
[3] = molecular target: MAO-B (amine oxidase [flavin-containing] B) (Homo sapiens, UniProt P27338); test: MAO-B (h) recombinant enzyme Eurofins-Cerep enzyme and uptake assay; parameters: incubation time 60 min, incubation temperature 37°C, substrate/stimulus/tracer D-Luciferin derivative (4 µM); details: probe D-Luciferin derivative (4 µM), compound concentration 10 uM, read-out: % Inhibition of Control Values (Mean n=2)
[4] = molecular target: Adenosine receptor A1 (Homo sapiens) (UniProt P30542); test: A1 (h) Eurofins-Cerep binding assay; parameters: ligand concentration 1 nM; details: filed as antagonist, Compound concentration 10.0 uM
[5] = molecular target: T1, Alpha-2B adrenergic receptor (Homo sapiens) (UniProt P18089); test: Alpha2B (h) Eurofins-Cerep binding assay; parameters: ligand concentration 2.5 nM; details: filed as antagonist, Compound concentration 10.0 uM
T1 sequence (whole entry): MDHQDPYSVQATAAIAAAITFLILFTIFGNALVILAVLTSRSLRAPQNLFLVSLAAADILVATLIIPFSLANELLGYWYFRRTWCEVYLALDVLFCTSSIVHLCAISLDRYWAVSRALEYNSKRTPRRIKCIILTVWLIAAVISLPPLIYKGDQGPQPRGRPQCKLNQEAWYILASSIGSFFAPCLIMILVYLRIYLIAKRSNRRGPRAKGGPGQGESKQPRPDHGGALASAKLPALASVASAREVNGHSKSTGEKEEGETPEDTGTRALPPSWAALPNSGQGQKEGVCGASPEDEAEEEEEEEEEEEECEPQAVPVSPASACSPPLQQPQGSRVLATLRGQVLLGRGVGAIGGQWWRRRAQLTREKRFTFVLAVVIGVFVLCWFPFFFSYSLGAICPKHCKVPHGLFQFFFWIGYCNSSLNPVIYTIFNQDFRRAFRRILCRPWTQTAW

[6] = molecular target: Muscarinic acetylcholine receptor M1 (Homo sapiens) (UniProt P11229); test: M1 (h) Eurofins-Cerep binding assay; parameters: ligand concentration 2 nM; details: filed as antagonist, Compound concentration 10.0 uM
[7] = molecular target: Neuropeptide Y receptor type 1 (Homo sapiens) (UniProt P25929); test: Y1 (h) Eurofins-Cerep binding assay; parameters: ligand concentration 0.025 nM; details: filed as agonist, Compound concentration 10.0 uM
[8] = molecular target: Sigma non-opioid intracellular receptor 1 (Homo sapiens, UniProt Q99720); test: sigma (non-selective) (h) Eurofins-Cerep binding assay; parameters: ligand concentration 10 nM; details: filed as agonist, Compound concentration 10.0 uM
Sequence of Sigma non-opioid intracellular receptor 1 (Q99720 whole entry): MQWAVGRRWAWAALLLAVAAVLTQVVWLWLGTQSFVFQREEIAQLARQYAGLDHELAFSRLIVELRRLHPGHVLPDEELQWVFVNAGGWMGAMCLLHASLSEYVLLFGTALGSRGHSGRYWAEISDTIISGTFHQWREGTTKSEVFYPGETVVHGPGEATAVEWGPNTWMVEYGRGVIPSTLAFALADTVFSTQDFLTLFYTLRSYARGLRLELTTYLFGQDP

[9] = test system: Tyrosine-protein kinase ABL1 (Homo sapiens), P00519 [F317L]; details: Compound concentration 1000.0 nM
[10] = molecular target: Atypical kinase COQ8B, mitochondrial (Homo sapiens) (UniProt Q96D53); details: Compound concentration 1000.0 nM
[11] = molecular target: Aurora kinase B (Homo sapiens) (UniProt Q96GD4); details: Compound concentration 1000.0 nM
[12] = molecular target: Calcium/calmodulin-dependent protein kinase type 1D (Homo sapiens) (UniProt Q8IU85); details: Compound concentration 1000.0 nM
[13] = molecular target: Cyclin-dependent kinase 9 (Homo sapiens) (UniProt P50750); details: Compound concentration 1000.0 nM
Sequence of Cyclin-dependent kinase 9 (Homo sapiens) (P50750 whole entry): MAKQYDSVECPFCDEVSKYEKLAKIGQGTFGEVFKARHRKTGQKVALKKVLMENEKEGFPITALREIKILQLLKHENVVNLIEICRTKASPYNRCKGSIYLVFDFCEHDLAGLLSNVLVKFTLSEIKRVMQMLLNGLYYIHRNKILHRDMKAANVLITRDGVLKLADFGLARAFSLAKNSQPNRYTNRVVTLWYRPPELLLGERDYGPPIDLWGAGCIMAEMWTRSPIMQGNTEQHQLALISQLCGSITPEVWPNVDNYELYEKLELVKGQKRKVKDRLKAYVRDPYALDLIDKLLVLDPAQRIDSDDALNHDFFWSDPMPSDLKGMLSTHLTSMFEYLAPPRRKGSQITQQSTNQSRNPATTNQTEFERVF

[14] = molecular target: Ephrin type-A receptor 5 (Homo sapiens) (UniProt P54756); details: Compound concentration 1000.0 nM
[15] = molecular target: Ephrin type-A receptor 8 (Homo sapiens) (UniProt P29322); details: Compound concentration 1000.0 nM
[16] = molecular target: Ephrin type-B receptor 1 (Homo sapiens) (UniProt P54762); details: Compound concentration 1000.0 nM
[17] = molecular target: Cyclin-G-associated kinase (Homo sapiens) (UniProt O14976); details: Compound concentration 1000.0 nM
[18] = molecular target: Tyrosine-protein kinase JAK1 (Homo sapiens) (UniProt P23458); details: Compound concentration 1000.0 nM
[19] = test system: Mast/stem cell growth factor receptor Kit (Homo sapiens), P10721 [L576P]; details: Compound concentration 1000.0 nM
[20] = molecular target: Mitogen-activated protein kinase kinase kinase kinase 2 (Homo sapiens) (UniProt Q12851); details: Compound concentration 1000.0 nM
[21] = molecular target: Mitogen-activated protein kinase kinase kinase kinase 3 (Homo sapiens) (UniProt Q8IVH8); details: Compound concentration 1000.0 nM
Sequence of Mitogen-activated protein kinase kinase kinase kinase 3 (Homo sapiens) (Q8IVH8 whole entry): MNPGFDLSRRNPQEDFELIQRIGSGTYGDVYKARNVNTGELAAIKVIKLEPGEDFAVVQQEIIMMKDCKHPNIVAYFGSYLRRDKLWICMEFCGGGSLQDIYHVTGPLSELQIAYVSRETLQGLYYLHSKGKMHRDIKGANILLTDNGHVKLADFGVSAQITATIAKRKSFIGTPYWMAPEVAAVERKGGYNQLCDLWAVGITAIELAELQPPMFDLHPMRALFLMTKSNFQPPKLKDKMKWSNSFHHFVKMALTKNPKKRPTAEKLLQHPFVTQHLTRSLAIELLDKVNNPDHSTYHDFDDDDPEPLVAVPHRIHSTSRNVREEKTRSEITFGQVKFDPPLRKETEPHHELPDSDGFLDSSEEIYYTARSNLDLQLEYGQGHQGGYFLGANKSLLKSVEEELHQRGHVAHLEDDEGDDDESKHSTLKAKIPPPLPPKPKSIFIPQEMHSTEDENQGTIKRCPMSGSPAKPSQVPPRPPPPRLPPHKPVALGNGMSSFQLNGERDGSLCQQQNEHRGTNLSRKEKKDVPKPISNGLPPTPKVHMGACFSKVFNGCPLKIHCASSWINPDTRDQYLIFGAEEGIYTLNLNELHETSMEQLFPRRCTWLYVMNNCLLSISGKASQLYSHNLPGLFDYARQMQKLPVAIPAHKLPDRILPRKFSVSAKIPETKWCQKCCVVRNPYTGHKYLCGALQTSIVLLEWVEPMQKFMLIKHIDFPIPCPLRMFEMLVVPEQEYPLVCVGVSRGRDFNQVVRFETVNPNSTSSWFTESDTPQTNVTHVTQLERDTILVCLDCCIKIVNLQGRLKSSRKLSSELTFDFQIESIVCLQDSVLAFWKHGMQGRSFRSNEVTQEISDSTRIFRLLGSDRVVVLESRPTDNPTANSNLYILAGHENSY

[22] = molecular target: Dual specificity mitogen-activated protein kinase kinase 5 (Homo sapiens) (UniProt Q13163); details: Compound concentration 1000.0 nM
[23] = molecular target: Myosin light chain kinase family member 4 (Homo sapiens) (UniProt Q86YV6); details: Compound concentration 1000.0 nM
[24] = molecular target: Serine/threonine-protein kinase Nek11 (Homo sapiens) (UniProt Q8NG66); details: Compound concentration 1000.0 nM
[25] = molecular target: Serine/threonine-protein kinase Nek2 (Homo sapiens) (UniProt P51955); details: Compound concentration 1000.0 nM
[26] = molecular target: Serine/threonine-protein kinase NIM1 (Homo sapiens) (UniProt Q8IY84); details: Compound concentration 1000.0 nM
Sequence of Serine/threonine-protein kinase NIM1 (Homo sapiens) (Q8IY84 whole entry, the tested form may be a part): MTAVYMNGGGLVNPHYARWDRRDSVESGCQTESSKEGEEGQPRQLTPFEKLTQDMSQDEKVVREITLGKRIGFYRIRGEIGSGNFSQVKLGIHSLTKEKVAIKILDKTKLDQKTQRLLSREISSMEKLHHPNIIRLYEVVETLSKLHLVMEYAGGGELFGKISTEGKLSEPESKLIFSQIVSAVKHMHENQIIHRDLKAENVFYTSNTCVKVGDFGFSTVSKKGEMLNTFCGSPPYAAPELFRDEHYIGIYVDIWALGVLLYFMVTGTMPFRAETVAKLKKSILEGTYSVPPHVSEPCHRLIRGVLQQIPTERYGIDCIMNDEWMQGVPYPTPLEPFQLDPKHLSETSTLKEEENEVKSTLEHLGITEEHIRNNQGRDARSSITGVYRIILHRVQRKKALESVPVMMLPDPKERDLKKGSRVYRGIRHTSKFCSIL

[27] = molecular target: Phosphatidylinositol 4-phosphate 3-kinase C2 domain-containing subunit beta (Homo sapiens) (UniProt O00750); details: Compound concentration 1000.0 nM
[28] = molecular target: Serine/threonine-protein kinase PLK1 (Homo sapiens) (UniProt P53350); details: Compound concentration 1000.0 nM
Sequence of Serine/threonine-protein kinase PLK1 (Homo sapiens) (P53350 whole entry): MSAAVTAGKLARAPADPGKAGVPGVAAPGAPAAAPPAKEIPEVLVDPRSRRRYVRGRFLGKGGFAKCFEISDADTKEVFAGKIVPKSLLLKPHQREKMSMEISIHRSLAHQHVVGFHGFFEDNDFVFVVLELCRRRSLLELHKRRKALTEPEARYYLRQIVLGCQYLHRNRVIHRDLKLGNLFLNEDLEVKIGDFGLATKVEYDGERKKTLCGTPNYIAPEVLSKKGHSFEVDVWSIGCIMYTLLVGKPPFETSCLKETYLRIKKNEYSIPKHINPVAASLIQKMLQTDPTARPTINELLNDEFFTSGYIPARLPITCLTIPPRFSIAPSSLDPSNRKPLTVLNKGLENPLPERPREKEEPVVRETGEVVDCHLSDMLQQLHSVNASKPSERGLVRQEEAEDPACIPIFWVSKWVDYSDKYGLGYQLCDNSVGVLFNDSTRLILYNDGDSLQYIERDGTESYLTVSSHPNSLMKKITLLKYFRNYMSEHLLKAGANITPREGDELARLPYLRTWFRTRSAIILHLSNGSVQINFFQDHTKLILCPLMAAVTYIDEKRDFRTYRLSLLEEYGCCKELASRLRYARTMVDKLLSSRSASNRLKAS

[29] = test system: Proto-oncogene tyrosine-protein kinase receptor Ret (Homo sapiens), P07949 [V804L]; details: Compound concentration 1000.0 nM
[30] = molecular target: Serine/threonine-protein kinase 35 (Homo sapiens) (UniProt Q8TDR2); details: Compound concentration 1000.0 nM
[31] = molecular target: Serine/threonine-protein kinase TAO3 (Homo sapiens) (UniProt Q9H2K8); details: Compound concentration 1000.0 nM
Sequence of Serine/threonine-protein kinase TAO3 (Homo sapiens) (Q9H2K8 whole entry): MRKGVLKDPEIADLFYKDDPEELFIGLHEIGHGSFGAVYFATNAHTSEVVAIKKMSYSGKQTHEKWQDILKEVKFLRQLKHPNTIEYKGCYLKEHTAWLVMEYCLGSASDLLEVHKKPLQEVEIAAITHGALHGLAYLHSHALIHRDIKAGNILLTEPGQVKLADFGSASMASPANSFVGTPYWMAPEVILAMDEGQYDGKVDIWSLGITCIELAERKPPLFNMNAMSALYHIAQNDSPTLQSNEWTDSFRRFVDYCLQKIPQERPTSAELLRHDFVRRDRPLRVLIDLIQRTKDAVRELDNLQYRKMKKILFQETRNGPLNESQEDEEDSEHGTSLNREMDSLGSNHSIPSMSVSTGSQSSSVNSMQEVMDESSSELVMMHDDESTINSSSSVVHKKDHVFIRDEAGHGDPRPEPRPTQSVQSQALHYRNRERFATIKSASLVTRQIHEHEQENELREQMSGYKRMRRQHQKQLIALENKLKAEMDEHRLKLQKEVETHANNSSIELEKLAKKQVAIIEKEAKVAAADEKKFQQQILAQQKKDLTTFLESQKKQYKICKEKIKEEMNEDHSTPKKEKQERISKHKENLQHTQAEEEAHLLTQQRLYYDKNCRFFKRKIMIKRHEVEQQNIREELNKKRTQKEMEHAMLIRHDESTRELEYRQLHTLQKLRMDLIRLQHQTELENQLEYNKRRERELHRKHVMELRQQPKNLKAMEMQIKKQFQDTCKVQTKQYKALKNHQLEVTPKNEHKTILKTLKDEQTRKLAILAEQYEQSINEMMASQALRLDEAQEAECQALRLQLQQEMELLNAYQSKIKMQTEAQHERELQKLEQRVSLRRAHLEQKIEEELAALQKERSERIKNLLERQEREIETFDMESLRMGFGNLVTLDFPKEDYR

[32] = molecular target: TGF-beta receptor type-1 (Homo sapiens) (UniProt P36897); details: Compound concentration 1000.0 nM
[33] = molecular target: TRAF2 and NCK-interacting protein kinase (Homo sapiens) (UniProt Q9UKE5); details: Compound concentration 1000.0 nM
Sequence of TRAF2 and NCK-interacting protein kinase (Homo sapiens) (Q9UKE5 whole entry, looked up): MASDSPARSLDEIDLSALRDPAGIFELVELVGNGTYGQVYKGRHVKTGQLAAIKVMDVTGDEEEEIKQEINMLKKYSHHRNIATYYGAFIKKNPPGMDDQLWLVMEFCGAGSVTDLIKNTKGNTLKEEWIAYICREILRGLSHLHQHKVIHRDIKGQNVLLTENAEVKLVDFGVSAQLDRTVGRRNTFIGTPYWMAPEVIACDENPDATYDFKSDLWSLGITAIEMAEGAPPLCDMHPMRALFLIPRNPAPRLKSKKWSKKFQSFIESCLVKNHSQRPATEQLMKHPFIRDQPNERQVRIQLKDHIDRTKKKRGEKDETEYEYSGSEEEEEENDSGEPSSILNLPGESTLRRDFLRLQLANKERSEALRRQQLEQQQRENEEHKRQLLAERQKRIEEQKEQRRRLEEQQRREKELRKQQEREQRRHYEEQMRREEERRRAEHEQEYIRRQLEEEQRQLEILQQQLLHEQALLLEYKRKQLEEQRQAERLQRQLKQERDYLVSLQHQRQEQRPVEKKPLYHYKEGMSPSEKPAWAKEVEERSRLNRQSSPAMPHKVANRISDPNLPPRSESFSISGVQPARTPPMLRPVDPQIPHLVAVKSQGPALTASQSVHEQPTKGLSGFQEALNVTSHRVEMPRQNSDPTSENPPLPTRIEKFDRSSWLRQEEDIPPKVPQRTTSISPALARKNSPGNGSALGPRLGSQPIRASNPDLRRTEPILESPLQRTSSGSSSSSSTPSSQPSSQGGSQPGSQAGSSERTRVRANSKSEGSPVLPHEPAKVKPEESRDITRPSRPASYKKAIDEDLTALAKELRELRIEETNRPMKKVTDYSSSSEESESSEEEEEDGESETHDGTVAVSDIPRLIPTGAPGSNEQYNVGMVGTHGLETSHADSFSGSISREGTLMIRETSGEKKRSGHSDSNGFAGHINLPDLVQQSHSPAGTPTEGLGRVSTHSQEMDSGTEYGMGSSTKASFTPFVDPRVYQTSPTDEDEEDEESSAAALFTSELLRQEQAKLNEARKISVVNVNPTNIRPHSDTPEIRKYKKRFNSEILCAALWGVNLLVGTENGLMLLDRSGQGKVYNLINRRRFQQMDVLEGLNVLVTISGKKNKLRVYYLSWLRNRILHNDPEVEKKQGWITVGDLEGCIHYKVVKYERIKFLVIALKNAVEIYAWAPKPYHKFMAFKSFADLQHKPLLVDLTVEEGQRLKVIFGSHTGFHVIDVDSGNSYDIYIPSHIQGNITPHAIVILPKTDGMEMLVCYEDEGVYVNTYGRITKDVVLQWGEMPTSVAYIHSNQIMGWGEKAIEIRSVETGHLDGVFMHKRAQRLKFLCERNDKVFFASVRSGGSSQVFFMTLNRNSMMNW

[34] = molecular target: Transient receptor potential cation channel subfamily M member 6 (Homo sapiens) (UniProt Q9BX84); details: Compound concentration 1000.0 nM
[35] = molecular target: Serine/threonine-protein kinase VRK2 (Homo sapiens) (UniProt Q86Y07); details: Compound concentration 1000.0 nM
[36] = molecular target: Wee1-like protein kinase (Homo sapiens) (UniProt P30291); details: Compound concentration 1000.0 nM
[37] = molecular target: D(1A) dopamine receptor (Homo sapiens) (UniProt P21728); details: Compound concentration 10.0 uM
[38] = molecular target: D(2) dopamine receptor (Homo sapiens) (UniProt P14416); details: Compound concentration 10.0 uM

| SMILES | EC50 [1] | % Inhibition of Control Values (Mean n=2) [2] [%] | inhibition at 60 min, 10 µM [3] [%] | % Inhibition of Control Specific Binding (Mean n=2) [4] [%] | % Inhibition of Control Specific Binding (Mean n=2) [5] [%] | % Inhibition of Control Specific Binding (Mean n=2) [6] [%] | % Inhibition of Control Specific Binding (Mean n=2) [7] [%] | % Inhibition of Control Specific Binding (Mean n=2) [8] [%] | residual activity [9] [%] | residual activity [10] [%] | residual activity [11] [%] | residual activity [12] [%] | residual activity [13] [%] | residual activity [14] [%] | residual activity [15] [%] | residual activity [16] [%] | residual activity [17] [%] | residual activity [18] [%] | residual activity [19] [%] | residual activity [20] [%] | other results |
| --- | --- | --- | --- | --- | --- | --- | --- | --- | --- | --- | --- | --- | --- | --- | --- | --- | --- | --- | --- | --- | --- |
| COc1ccc2c(c1)O[C@@H](c1ccc(OC)c(OC)c1)C[C@H]2NC(=O)C1(c2ccc3c(c2)OC(F)(F)O3)CC1 [A-1596586] | 28 nM (active) | -94 | 11.9 | 14.3 | 63.5 | -20.6 | 9.8 | 35.1 | 76 | 100 | 84 | 94 | 89 | 100 | 82 | 87 | 100 | 90 | 92 | 87 | residual activity [21]: 90%; residual activity [22]: 67%; residual activity [23]: 97%; residual activity [24]: 83%; residual activity [25]: 97%; residual activity [26]: 94%; residual activity [27]: 96%; residual activity [28]: 70%; residual activity [29]: 95%; residual activity [30]: 98%; residual activity [31]: 91%; residual activity [32]: 100%; residual activity [33]: 71%; residual activity [34]: 82%; residual activity [35]: 67%; residual activity [36]: 99%; inhibition [37]: 29.2%; inhibition [38]: 2.62% |
| COc1ccc2c(c1)O[C@H](c1ccc(OC)c(OC)c1)C[C@@H]2NC(=O)C1(c2ccc3c(c2)OC(F)(F)O3)CC1 [A-1596584] | > 3000 nM (not active) | -28.5 | 16.7 | 11.5 | 36.4 | -28 | -0.4 | 33.1 | 100 | 63 | 98 | 100 | 78 | 100 | 100 | 100 | 100 | 100 | 100 | 99 | residual activity [21]: 100%; residual activity [22]: 76%; residual activity [23]: 100%; residual activity [24]: 88%; residual activity [25]: 100%; residual activity [26]: 84%; residual activity [27]: 96%; residual activity [28]: 83%; residual activity [29]: 87%; residual activity [30]: 100%; residual activity [31]: 100%; residual activity [32]: 100%; residual activity [33]: 100%; residual activity [34]: 84%; residual activity [35]: 82%; residual activity [36]: 100%; inhibition [37]: 35.1%; inhibition [38]: -7.27% |
